Read-outs that look alike come from different tables or passages of the source. Positions of bridges follow the written chain, without caps; N, C: chain ends. Non-standard residues stand in square brackets, D forms with d. Residues, ends and D or L forms follow the SMILES beside them. ξ: configuration not given here. hCha = N[C@@H](CCC1CCCCC1)C(=O)O; hPhe = N[C@@H](CCc1ccccc1)C(=O)O; R8 = C=CCCCCCC[C@@](C)(N)C(=O)O; ξαMeD = CC(N)(CC(=O)O)C(=O)O; S5 = C=CCCC[C@](C)(N)C(=O)O; Aib = CC(C)(N)C(=O)O
What was measured:
Mcl-1, Bcl-xL, Bcl-2 = test: BCL-2 family selectivity profile; format: binding
Text: The binding spectrum of stapled BIM BH3 peptides were tuned for BCL-2 family selectivity. […] ABT-199 is venetoclax, and † represents values reported in the literature.

Mcl-1 = Mcl-1 (Homo sapiens, UniProt Q07820); test: Ki determination for Mcl-1 (BCL-2 family binding spectrum)
In short: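 Competitive fluorescence polarization assay in which compounds displace a fluoresceinated peptidomimetic macrocycle tracer from Mcl-1. Affinity constants were obtained by nonlinear regression.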

Bcl-xL = Bcl-xL (Homo sapiens, UniProt Q07817); test: Ki determination for Bcl-xL (BCL-2 family binding spectrum)
In short: (§1)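 Competitive fluorescence polarization: compounds (1 nM–1 mM) with 25 nM fluoresceinated peptidomimetic macrocycle and 50 nM protein in 140 mM NaCl, 50 mM Tris-HCl pH 7.4, 30 min at room temperature. Constants from nonlinear regression.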

Bcl-2 = Bcl-2 (Homo sapiens, UniProt P10415); test: Ki determination for Bcl-2 (BCL-2 family binding spectrum); conditions: read-out: Ki BCL-2
In short: as §1

Chain of Bcl-2 (P10415 whole entry, species assumed): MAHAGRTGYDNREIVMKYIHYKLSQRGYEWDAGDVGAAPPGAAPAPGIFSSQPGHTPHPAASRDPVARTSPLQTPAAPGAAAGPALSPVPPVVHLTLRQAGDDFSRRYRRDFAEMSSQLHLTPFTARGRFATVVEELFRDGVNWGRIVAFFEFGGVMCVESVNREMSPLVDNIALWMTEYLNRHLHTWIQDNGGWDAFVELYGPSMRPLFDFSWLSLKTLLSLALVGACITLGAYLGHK
Chain of Mcl-1 (Q07820 whole entry, species assumed): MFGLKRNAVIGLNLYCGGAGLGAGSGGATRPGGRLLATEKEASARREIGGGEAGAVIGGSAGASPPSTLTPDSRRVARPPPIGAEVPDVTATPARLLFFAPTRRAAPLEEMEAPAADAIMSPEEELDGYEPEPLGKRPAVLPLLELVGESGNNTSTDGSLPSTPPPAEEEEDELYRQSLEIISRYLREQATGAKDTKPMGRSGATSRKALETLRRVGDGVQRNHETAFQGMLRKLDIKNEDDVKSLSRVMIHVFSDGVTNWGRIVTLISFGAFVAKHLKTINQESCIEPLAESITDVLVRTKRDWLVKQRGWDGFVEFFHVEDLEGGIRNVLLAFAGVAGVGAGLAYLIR
Chain of Bcl-xL (Q07817 whole entry, species assumed): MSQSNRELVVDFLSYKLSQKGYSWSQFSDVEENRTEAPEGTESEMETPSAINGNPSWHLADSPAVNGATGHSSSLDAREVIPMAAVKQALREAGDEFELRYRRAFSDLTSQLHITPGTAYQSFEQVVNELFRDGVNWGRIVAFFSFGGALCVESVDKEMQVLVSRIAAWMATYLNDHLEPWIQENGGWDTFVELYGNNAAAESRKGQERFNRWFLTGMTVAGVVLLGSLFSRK

Ki (Bcl-2) | Ki (Bcl-xL; read-out: Ki BCL-XL) | Ki (Mcl-1; read-out: Ki MCL-1) | SMILES | Profile (Mcl-1, Bcl-xL, Bcl-2; TABLE 6) | further results
– | – | – | CN(C)CC[C@H](CSc1ccccc1)Nc1ccc(S(=O)(=O)NC(=O)c2ccc(N3CCN(Cc4ccccc4-c4ccc(Cl)cc4)CC3)cc2)cc1[N+](=O)[O-] [ABT-737, reference compound] | – | Profile (Mcl-1, Bcl-xL, Bcl-2; TABLE 8): Bcl-xL/Bcl-2 selective
– | – | – | CC[C@H](C)[C@H](NC(C)=O)C(=O)N[C@@H](Cc1c[nH]c2ccccc12)C(=O)N[C@H](C(=O)N[C@@H](C)C(=O)N[C@@H](CCC(N)=O)C(=O)N[C@@H](C)C(=O)N[C@@H](CC(C)C)C(=O)N[C@@H](CCCNC(=N)N)C(=O)N[C@]1(C)CCCCCCC=CCCC[C@@](C)(C(=O)N[C@@H](Cc2ccc(O)cc2)C(=O)N[C@@H](Cc2ccc(O)cc2)C(=O)N[C@@H](C)C(=O)N[C@@H](CCCNC(=N)N)C(=O)N[C@@H](CCCNC(=N)N)C(N)=O)NC(=O)[C@H](CC(N)=O)NC(=O)[C@H](Cc2ccccc2)NC(=O)[C@H](CCC(=O)O)NC(=O)[C@H](CC(=O)O)NC(=O)CNC(=O)[C@H]([C@@H](C)CC)NC1=O)[C@@H](C)CC [Peptide #15] (Ac-IWIAQALR[R8]IGDEFN[S5]YYARR-NH2; staple 9-16) | – | Profile (Mcl-1, Bcl-xL, Bcl-2; TABLE 8): Pan-selective; Ki (Mcl-1; TABLE 8, read-out: Mcl-1 Ki): 10.6 nM
– | – | – | CC[C@H](C)[C@H](NC(C)=O)C(=O)N[C@@H](Cc1c[nH]c2ccccc12)C(=O)N[C@H](C(=O)N[C@@H](C)C(=O)N[C@@H](CCC(N)=O)C(=O)N[C@@H](C)C(=O)N[C@@H](CC(C)C)C(=O)N[C@@H](CCCNC(=N)N)C(=O)N[C@]1(C)CCCCCCC=CCCC[C@@](C)(C(=O)N[C@@H](Cc2ccc(O)cc2)C(=O)N[C@@H](Cc2ccc(O)cc2)C(=O)N[C@@H](C)C(N)=O)NC(=O)[C@H](CC(N)=O)NC(=O)[C@H](C)NC(=O)[C@H](CCC(N)=O)NC(=O)[C@H](CC(=O)O)NC(=O)CNC(=O)[C@H]([C@@H](C)CC)NC1=O)[C@@H](C)CC [compound 8] (Ac-IWIAQALR[R8]IGDQAN[S5]YYA-NH2; staple 9-16) | Mcl-1 selective | Ki (Mcl-1; TABLE 6, read-out: Mcl-1 Ki): 1.4 nM
– | – | – | CC[C@H](C)[C@H](NC(C)=O)C(=O)N[C@@H](Cc1c[nH]c2ccccc12)C(=O)N[C@H](C(=O)N[C@@H](C)C(=O)N[C@@H](CCC(N)=O)C(=O)N[C@@H](C)C(=O)N[C@@H](CC(C)C)C(=O)N[C@@H](C)C(=O)N[C@]1(C)CCCCCCC=CCCC[C@@](C)(C(=O)N[C@@H](Cc2ccc(O)cc2)C(=O)N[C@@H](Cc2ccc(O)cc2)C(=O)N[C@@H](C)C(N)=O)NC(=O)[C@H](CC(N)=O)NC(=O)[C@H](Cc2ccccc2)NC(=O)[C@H](C)NC(=O)[C@H](CC(=O)O)NC(=O)CNC(=O)[C@H]([C@@H](C)CC)NC1=O)[C@@H](C)CC [compound 11] (Ac-IWIAQALA[R8]IGDAFN[S5]YYA-NH2; staple 9-16) | negative control | Ki (Bcl-xL; TABLE 6, read-out: Bcl-xL Ki): 386 nM; Ki (Mcl-1; TABLE 6, read-out: Mcl-1 Ki): 73.8 nM
– | – | – | CC[C@H](C)[C@H](NC(C)=O)C(=O)N[C@@H](Cc1c[nH]c2ccccc12)C(=O)N[C@H](C(=O)N[C@@H](C)C(=O)N[C@@H](CCC(N)=O)C(=O)N[C@@H](C)C(=O)N[C@@H](CC(C)C)C(=O)N[C@@H](CCCNC(=N)N)C(=O)N[C@]1(C)CCCCCCC=CCCC[C@@](C)(C(=O)N[C@@H](Cc2ccc(O)cc2)C(=O)N[C@@H](Cc2ccc(O)cc2)C(=O)N[C@@H](C)C(N)=O)NC(=O)[C@H](CC(N)=O)NC(=O)[C@H](Cc2ccccc2)NC(=O)[C@H](C)NC(=O)[C@H](CC(N)=O)NC(=O)CNC(=O)[C@H]([C@@H](C)CC)NC1=O)[C@@H](C)CC [compound 12] (Ac-IWIAQALR[R8]IGNAFN[S5]YYA-NH2; staple 9-16) | negative control | –
– | – | – | CC[C@H](C)[C@H](NC(C)=O)C(=O)N[C@@H](Cc1c[nH]c2ccccc12)C(=O)N[C@H](C(=O)N[C@@H](C)C(=O)N[C@@H](CCC(N)=O)C(=O)N[C@@H](C)C(=O)N[C@@H](C)C(=O)N[C@@H](CCCNC(=N)N)C(=O)N[C@]1(C)CCCCCCC=CCCC[C@@](C)(C(=O)N[C@@H](Cc2ccc(O)cc2)C(=O)N[C@@H](Cc2ccc(O)cc2)C(=O)N[C@@H](C)C(N)=O)NC(=O)[C@H](CC(N)=O)NC(=O)[C@H](Cc2ccccc2)NC(=O)[C@H](C)NC(=O)[C@H](CC(=O)O)NC(=O)CNC(=O)[C@H]([C@@H](C)CC)NC1=O)[C@@H](C)CC [compound 13] (Ac-IWIAQAAR[R8]IGDAFN[S5]YYA-NH2; staple 9-16) | negative control | –
405 nM | 416 nM | 195 nM | CC[C@H](C)[C@H](NC(C)=O)C(=O)N[C@@H](Cc1c[nH]c2ccccc12)C(=O)N[C@H](C(=O)N[C@@H](C)C(=O)N[C@@H](CCC(N)=O)C(=O)N[C@@H](C)C(=O)N[C@@H](CC(C)C)C(=O)N[C@@H](CCCNC(=N)N)C(=O)N[C@]1(C)CCCCCCC=CCCC[C@@](C)(C(=O)N[C@@H](Cc2ccc(O)cc2)C(=O)N[C@@H](Cc2ccc(O)cc2)C(=O)N[C@@H](C)C(N)=O)NC(=O)[C@H](CC(N)=O)NC(=O)[C@H](Cc2ccccc2)NC(=O)[C@H](C)NC(=O)[C@H](CC(N)=O)NC(=O)CNC(=O)[C@H]([C@@H](C)CC)NC1=O)[C@@H](C)CC [compound 1674] (Ac-IWIAQALR[R8]IGNAFN[S5]YYA-NH2; staple 9-16) | – | –
> 1000 nM | > 1000 nM | > 1000 nM | CC[C@H](C)[C@H](NC(C)=O)C(=O)N[C@@H](Cc1c[nH]c2ccccc12)C(=O)N[C@H](C(=O)N[C@@H](C)C(=O)N[C@@H](CCC(N)=O)C(=O)N[C@@H](C)C(=O)N[C@@H](C)C(=O)N[C@@H](CCCNC(=N)N)C(=O)N[C@]1(C)CCCCCCC=CCCC[C@@](C)(C(=O)N[C@@H](Cc2ccc(O)cc2)C(=O)N[C@@H](Cc2ccc(O)cc2)C(=O)N[C@@H](C)C(N)=O)NC(=O)[C@H](CC(N)=O)NC(=O)[C@H](Cc2ccccc2)NC(=O)[C@H](C)NC(=O)[C@H](CC(=O)O)NC(=O)CNC(=O)[C@H]([C@@H](C)CC)NC1=O)[C@@H](C)CC [compound 1675] (Ac-IWIAQAAR[R8]IGDAFN[S5]YYA-NH2; staple 9-16) | – | –
> 1000 nM | > 1000 nM | 3.8 nM | CC[C@H](C)[C@H](NC(C)=O)C(=O)N[C@@H](Cc1c[nH]c2ccccc12)C(=O)N[C@H](C(=O)N[C@@H](C)C(=O)N[C@@H](CCC(N)=O)C(=O)N[C@@H](C)C(=O)N[C@@H](CCC1CCCCC1)C(=O)N[C@@H](CCCNC(=N)N)C(=O)N[C@]1(C)CCCCCCC=CCCC[C@@](C)(C(=O)N[C@@H](Cc2ccc(O)cc2)C(=O)N[C@@H](Cc2ccc(O)cc2)C(=O)N[C@@H](C)C(N)=O)NC(=O)[C@H](CC(N)=O)NC(=O)[C@H](Cc2ccccc2)NC(=O)[C@H](C)NC(=O)[C@H](CC(=O)O)NC(=O)CNC(=O)[C@H]([C@@H](C)CC)NC1=O)[C@@H](C)CC [compound 1690] (Ac-IWIAQA[hCha]R[R8]IGDAFN[S5]YYA-NH2; staple 9-16) | – | –
> 1000 nM | > 1000 nM | 7.5 nM | CC[C@H](C)[C@H](NC(C)=O)C(=O)N[C@@H](Cc1c[nH]c2ccccc12)C(=O)N[C@H](C(=O)N[C@@H](C)C(=O)N[C@@H](CCC(N)=O)C(=O)N[C@@H](C)C(=O)N[C@@H](CCc1ccccc1)C(=O)N[C@@H](CCCNC(=N)N)C(=O)N[C@]1(C)CCCCCCC=CCCC[C@@](C)(C(=O)N[C@@H](Cc2ccc(O)cc2)C(=O)N[C@@H](Cc2ccc(O)cc2)C(=O)N[C@@H](C)C(N)=O)NC(=O)[C@H](CC(N)=O)NC(=O)[C@H](Cc2ccccc2)NC(=O)[C@H](C)NC(=O)[C@H](CC(=O)O)NC(=O)CNC(=O)[C@H]([C@@H](C)CC)NC1=O)[C@@H](C)CC [compound 1692] (Ac-IWIAQA[hPhe]R[R8]IGDAFN[S5]YYA-NH2; staple 9-16) | – | –
> 1000 nM | > 1000 nM | > 1000 nM | CC[C@H](C)[C@H](NC(C)=O)C(=O)N[C@@H](Cc1c[nH]c2ccccc12)C(=O)N[C@H](C(=O)NC(C)(C)C(=O)N[C@@H](CCC(N)=O)C(=O)N[C@@H](C)C(=O)N[C@@H](CC(C)C)C(=O)N[C@@H](CCCNC(=N)N)C(=O)N[C@]1(C)CCCCCCC=CCCC[C@@](C)(C(=O)N[C@@H](Cc2ccc(O)cc2)C(=O)N[C@@H](Cc2ccc(O)cc2)C(=O)N[C@@H](C)C(N)=O)NC(=O)[C@H](CC(N)=O)NC(=O)[C@H](Cc2ccccc2)NC(=O)[C@H](C)NC(=O)C(C)(CC(=O)O)NC(=O)CNC(=O)[C@H]([C@@H](C)CC)NC1=O)[C@@H](C)CC (stereo partly shown) [compound 1707] (Ac-IWI[Aib]QALR[R8]IG[ξαMeD]AFN[S5]YYA-NH2; staple 9-16) | – | –
23.5 nM | 15.4 nM | 3.9 nM | CC[C@H](C)[C@H](NC(C)=O)C(=O)N[C@@H](Cc1c[nH]c2ccccc12)C(=O)N[C@H](C(=O)N[C@@H](C)C(=O)N[C@@H](CCC(N)=O)C(=O)N[C@@H](C)C(=O)N[C@@H](CC(C)C)C(=O)N[C@@H](CCCNC(=N)N)C(=O)N[C@]1(C)CCCCCCC=CCCC[C@@](C)(C(=O)N[C@@H](Cc2ccc(O)cc2)C(=O)N[C@@H](Cc2c[nH]c3ccccc23)C(=O)N[C@@H](C)C(N)=O)NC(=O)[C@H](CC(N)=O)NC(=O)[C@H](Cc2ccccc2)NC(=O)[C@H](C)NC(=O)[C@H](CC(=O)O)NC(=O)CNC(=O)[C@H]([C@@H](C)CC)NC1=O)[C@@H](C)CC [compound 1758] (Ac-IWIAQALR[R8]IGDAFN[S5]YWA-NH2; staple 9-16) | – | –
> 1000 nM | > 1000 nM | > 1000 nM | CC[C@H](C)[C@H](NC(C)=O)C(=O)N[C@@H](Cc1c[nH]c2ccccc12)C(=O)N[C@H](C(=O)N[C@@H](C)C(=O)N[C@@H](CCC(N)=O)C(=O)N[C@@H](C)C(=O)N[C@@H](CC(C)C)C(=O)N[C@@H](CCCNC(N)=O)C(=O)N[C@]1(C)CCCCCCC=CCCC[C@@](C)(C(=O)N[C@@H](Cc2ccc(O)cc2)C(=O)N[C@@H](Cc2ccc(O)cc2)C(=O)N[C@@H](C)C(N)=O)NC(=O)[C@H](CC(N)=O)NC(=O)[C@H](Cc2ccccc2)NC(=O)[C@H](C)NC(=O)[C@H](CC(N)=O)NC(=O)CNC(=O)[C@H]([C@@H](C)CC)NC1=O)[C@@H](C)CC [compound 1772] | – | –

Source: patent publication US20190185518A9, “WARHEAD-CONTAINING PEPTIDOMIMETIC MACROCYCLES AS MODULATORS OF BFL-1” (AILERON Therapeutics, Inc., priority 2017, published 2019)
